In US20150307520A1, “NOVEL HETEROARYL AND HETEROCYCLE COMPOUNDS, COMPOSITIONS AND METHODS THEREOF” (HUTCHISON MEDIPHARMA LIMITED, priority 2012, published 2015):

How the values were obtained:
[1] = target: p110δ/p85α (Homo sapiens, UniProt O00329); test: Transcreener KINASE Assay, kinase inhibition of p110δ/p85α; type: biochemical; conditions: for PI3Kδ IH % @ 1 uM: 1 uM test compound; for IC50: read-out: PI3Kδ IC50
Outline: (§1)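 ADP formation read by far-red competitive FP immunoassay (60 min RT detection step) after an 80 min RT kinase reaction; substrate added as a 30 uM PIP2/10 uM ATP solution (not final).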

[2] = target: PI3Kγ (Mus musculus, UniProt Q9JHG7); test: Acumen Assay - Raw264.7 p-AKT Assay (C5a stimulated); type: cell-based; conditions: Raw264.7 macrophage cells, compound 30 min, stimulated with 10 nM C5a for 5 min, p-AKT (Ser473) readout; read-out: PI3Kγ cell-C5a Raw264.7 IC50
Chain of PI3Kγ (Q9JHG7 whole entry): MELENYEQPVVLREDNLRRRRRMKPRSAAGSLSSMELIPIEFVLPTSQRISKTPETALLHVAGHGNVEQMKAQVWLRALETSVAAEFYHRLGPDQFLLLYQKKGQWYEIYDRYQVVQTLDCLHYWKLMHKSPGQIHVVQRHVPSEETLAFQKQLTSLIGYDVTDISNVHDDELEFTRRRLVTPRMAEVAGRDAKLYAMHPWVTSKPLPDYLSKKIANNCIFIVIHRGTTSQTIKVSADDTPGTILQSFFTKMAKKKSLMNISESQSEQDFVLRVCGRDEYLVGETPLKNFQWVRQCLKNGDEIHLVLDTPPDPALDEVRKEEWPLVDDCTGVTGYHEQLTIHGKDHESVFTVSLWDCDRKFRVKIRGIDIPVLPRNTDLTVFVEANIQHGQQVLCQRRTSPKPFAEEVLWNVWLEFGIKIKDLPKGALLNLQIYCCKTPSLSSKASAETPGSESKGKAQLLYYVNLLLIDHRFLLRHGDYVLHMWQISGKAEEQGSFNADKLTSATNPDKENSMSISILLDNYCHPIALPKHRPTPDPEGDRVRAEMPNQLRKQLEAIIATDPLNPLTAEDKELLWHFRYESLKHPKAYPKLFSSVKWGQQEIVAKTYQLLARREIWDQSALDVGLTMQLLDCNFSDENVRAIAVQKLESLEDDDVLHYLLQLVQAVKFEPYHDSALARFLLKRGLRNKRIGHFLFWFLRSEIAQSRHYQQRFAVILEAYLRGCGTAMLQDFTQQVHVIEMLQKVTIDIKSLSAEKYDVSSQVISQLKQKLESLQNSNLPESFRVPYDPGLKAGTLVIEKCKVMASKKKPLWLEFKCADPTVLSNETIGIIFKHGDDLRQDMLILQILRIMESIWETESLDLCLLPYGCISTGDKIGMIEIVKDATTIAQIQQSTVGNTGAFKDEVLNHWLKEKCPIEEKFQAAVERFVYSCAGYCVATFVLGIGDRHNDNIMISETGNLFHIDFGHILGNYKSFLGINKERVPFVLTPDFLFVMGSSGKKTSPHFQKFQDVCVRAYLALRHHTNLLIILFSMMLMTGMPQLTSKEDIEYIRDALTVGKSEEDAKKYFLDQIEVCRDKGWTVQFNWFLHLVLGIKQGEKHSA
Description: Acumen Assay—Raw264.7 p-AKT Assay
Acumen® eX3 (A Multilaser Microplate Cytometer For Enhanced High Content Screening): TTP LabTech
3×10^4 Raw264.7 macrophage cells were seeded into 96-well plates with DMEM+10% heat-inactivated FBS at […], 90 ul/well, overnight. After starvation for 3 hr at 37° C. under 5% CO2, Raw264.7 cells were treated with 10 ul/well various concentrations of compound or 0.5% DMSO for 30 min, and then stimulated with 10 ul/well 10 nM C5a for 5 min.
1.) Cells were fixed 110 μL of 4% pre-warmed Paraformaldehyde (2% final), incubate for 45 min at room temperature. 2.) Remove paraformaldehyde solution. Add 100 μL of ice-cold 0.1% Triton X-100 in PBS and leave at 4° C. for 30 min. 3.) Wash once in 100 μL PBS. 4.) Incubate with 100 μL blocking buffer (1% BSA, in PBS) for 2 hours at room temperature. 5.) Wash once for 5 min with 100 ul PBS. 6.) Incubate with 40 μL 1:200 dilution of phospho AKT (Ser473) rabbit antibody in antibody dilution buffer (0.1% BSA, in PBS) overnight at 4° C. 7.) Wash for 3 times for 10 min with 100 ul PBS. 8.) Incubate for 90 min at room temperature with 50 μL of goat anti-rabbit Alex488 antibody at a 1:1,000 dilution in antibody dilution buffer (0.1% BSA, in PBS). Cover plate in foil to keep out of light. 9.) Wash for 3 times for 10 min with 100 μL PBS. 10.) Add 50 μL of 1.5 μM Propidium Iodide solution to each well to determine cell number at a 1:1,000 dilution in PBS (stock: 1.5 mM). 11.) Incubate at room temperature for 30 min. 12.) Seal the plate with a black cover-seal (supplied with plate). 13.) Load the plate into the Acumen Explorer and scan with the appropriate instrument settings.

[3] = target: p110β/p85α (Homo sapiens, UniProt P42338); test: Transcreener KINASE Assay, kinase inhibition of p110β/p85α; type: biochemical; conditions: for PI3Kβ IH % @ 1 uM: 1 uM test compound; for IC50: read-out: PI3Kβ IC50
Outline: as §1

[4] = target: p110γ (Homo sapiens, UniProt P48736); test: Transcreener KINASE Assay, kinase inhibition of p110γ; type: biochemical; conditions: for PI3Kγ IH % @ 1 uM: 1 uM test compound; for IC50: read-out: PI3Kγ IC50
Chain of p110γ (P48736 whole entry, canonical isoform): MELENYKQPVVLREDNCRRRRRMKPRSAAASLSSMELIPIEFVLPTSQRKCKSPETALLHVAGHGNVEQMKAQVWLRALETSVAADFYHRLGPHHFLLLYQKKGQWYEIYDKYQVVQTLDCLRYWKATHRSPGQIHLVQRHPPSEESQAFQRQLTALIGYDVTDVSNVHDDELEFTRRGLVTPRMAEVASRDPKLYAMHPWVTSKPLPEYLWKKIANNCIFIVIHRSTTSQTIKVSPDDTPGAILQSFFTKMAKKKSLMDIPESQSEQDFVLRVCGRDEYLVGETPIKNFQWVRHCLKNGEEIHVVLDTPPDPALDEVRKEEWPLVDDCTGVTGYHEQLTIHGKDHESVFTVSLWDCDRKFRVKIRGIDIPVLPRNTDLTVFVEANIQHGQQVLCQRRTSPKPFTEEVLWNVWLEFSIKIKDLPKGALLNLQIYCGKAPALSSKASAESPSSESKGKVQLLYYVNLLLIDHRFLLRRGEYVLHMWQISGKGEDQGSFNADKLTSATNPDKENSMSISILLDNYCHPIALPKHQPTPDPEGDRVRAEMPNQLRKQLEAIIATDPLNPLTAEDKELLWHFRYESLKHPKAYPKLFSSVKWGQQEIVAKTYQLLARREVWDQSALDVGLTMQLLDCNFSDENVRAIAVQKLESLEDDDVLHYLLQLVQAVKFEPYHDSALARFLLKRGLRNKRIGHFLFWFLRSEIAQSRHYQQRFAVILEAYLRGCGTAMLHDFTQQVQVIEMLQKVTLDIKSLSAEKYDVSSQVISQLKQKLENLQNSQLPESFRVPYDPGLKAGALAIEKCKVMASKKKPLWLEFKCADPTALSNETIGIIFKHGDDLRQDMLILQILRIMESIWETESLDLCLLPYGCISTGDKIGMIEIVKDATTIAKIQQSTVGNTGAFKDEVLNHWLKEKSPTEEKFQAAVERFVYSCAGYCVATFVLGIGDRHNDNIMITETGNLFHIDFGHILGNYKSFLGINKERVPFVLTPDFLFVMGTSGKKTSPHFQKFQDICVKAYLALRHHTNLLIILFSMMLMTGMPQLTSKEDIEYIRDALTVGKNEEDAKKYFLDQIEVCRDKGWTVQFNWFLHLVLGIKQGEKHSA
Outline: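 ADP-detecting fluorescence polarization immunoassay run as two-step endpoint: kinase reaction for 80 min, detection for 60 min, both at room temperature. Enzymes are recombinant p110 isoforms with p85α, except p110γ. IC50s derived from fitted inhibition curves.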

[5] = target: p110α/p85α (Homo sapiens, UniProt P42336); test: Transcreener KINASE Assay, kinase inhibition of p110α/p85α; type: biochemical; conditions: read-out: PI3Kα IC50
Chain of p110α/p85α (P42336 whole entry): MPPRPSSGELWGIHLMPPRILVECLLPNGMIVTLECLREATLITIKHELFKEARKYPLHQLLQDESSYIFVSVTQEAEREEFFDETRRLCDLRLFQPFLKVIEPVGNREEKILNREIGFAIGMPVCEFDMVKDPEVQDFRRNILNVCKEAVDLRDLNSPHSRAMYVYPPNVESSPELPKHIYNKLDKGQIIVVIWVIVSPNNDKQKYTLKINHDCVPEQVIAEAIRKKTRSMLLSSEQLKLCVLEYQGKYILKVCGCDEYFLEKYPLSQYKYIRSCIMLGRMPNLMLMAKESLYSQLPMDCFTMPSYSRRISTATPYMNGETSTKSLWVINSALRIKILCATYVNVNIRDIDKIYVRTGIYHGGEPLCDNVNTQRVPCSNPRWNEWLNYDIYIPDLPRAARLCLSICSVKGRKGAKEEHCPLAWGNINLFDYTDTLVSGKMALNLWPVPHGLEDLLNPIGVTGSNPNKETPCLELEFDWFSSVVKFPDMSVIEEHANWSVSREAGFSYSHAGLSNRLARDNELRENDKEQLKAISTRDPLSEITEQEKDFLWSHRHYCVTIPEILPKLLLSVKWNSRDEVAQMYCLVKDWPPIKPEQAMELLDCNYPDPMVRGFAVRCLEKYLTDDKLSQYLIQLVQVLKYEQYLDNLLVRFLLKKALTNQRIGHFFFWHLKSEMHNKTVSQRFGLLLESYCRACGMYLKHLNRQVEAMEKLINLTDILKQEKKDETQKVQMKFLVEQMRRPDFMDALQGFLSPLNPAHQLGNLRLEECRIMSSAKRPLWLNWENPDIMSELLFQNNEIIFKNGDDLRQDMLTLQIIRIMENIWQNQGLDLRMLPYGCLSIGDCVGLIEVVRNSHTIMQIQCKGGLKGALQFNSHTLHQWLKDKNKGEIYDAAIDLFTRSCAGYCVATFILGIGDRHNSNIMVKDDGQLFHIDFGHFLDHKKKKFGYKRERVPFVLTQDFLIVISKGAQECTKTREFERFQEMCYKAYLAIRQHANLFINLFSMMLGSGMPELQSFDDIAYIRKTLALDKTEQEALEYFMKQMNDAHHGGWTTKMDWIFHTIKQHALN
Chain of p110α/p85α (P27986 whole entry partner): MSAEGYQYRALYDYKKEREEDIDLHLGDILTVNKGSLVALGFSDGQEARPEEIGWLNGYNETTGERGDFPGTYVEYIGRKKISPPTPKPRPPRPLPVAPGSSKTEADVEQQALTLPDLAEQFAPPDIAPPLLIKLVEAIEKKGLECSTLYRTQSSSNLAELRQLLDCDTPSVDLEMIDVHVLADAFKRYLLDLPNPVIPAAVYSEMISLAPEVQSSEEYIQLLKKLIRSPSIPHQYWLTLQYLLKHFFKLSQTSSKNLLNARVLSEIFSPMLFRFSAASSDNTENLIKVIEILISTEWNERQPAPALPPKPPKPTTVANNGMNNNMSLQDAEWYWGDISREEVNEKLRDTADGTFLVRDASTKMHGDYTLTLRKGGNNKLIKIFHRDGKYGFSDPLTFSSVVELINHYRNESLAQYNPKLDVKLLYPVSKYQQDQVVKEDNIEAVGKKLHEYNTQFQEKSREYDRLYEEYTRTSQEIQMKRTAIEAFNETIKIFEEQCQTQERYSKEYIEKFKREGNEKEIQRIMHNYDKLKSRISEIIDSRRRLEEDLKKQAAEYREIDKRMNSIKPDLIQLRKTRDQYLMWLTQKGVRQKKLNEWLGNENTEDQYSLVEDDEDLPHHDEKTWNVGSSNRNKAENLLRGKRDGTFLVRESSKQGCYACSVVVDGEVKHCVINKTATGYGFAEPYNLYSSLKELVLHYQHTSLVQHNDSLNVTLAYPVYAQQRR
Description: PI3K kinases including p110α/p85α, p110δ/p85α and p110γ are purchased from Invitrogen, and p110β/p85α is from Millipore.
Primary screening data and IC50 values are measured using Transcreener™ KINASE Assay (Bellbrook, Catalog #3003-10K). […] It is a universal, homogenous, high throughput screening (HTS) technology using a far-red, competitive fluorescence polarization immunoassay based on the detection of ADP to monitor the activity of enzymes that catalyze group transfer reactions. Briefly, the Transcreener KINASE Assay is designed as a simple two-part, endpoint assay.
In the first step, the 25 ul kinase reaction is performed by preparing a reaction mixture containing 5 ul test compound (2% DMSO final concentration), 10 ul kinase, buffer (50 mM HEPES, 100 mM NaCl, 1 mM EGTA, 0.03% CHAPS, 3 mM MgCl2, and freshly supplemented 1 mM DTT), and 10 ul 30 uM PIP2/10 uM ATP. The plate is sealed and incubated for 80 min at room temperature. Next, 25 ul ADP detection mix is added per well. The plate is sealed again and incubated for 60 min at room temperature, and then measure fluorescence polarization by Tecan Infinite F500 Reader.
Data is analyzed and IC50s are generated using the add-in software for Microsoft Excel, Xlfit™ (version 2.0). IH %=(ADP amount under 2% DMSO-ADP amount under test compound)/ADP amount under 2% DMSO.

Chain of p110δ/p85α (O00329 whole entry): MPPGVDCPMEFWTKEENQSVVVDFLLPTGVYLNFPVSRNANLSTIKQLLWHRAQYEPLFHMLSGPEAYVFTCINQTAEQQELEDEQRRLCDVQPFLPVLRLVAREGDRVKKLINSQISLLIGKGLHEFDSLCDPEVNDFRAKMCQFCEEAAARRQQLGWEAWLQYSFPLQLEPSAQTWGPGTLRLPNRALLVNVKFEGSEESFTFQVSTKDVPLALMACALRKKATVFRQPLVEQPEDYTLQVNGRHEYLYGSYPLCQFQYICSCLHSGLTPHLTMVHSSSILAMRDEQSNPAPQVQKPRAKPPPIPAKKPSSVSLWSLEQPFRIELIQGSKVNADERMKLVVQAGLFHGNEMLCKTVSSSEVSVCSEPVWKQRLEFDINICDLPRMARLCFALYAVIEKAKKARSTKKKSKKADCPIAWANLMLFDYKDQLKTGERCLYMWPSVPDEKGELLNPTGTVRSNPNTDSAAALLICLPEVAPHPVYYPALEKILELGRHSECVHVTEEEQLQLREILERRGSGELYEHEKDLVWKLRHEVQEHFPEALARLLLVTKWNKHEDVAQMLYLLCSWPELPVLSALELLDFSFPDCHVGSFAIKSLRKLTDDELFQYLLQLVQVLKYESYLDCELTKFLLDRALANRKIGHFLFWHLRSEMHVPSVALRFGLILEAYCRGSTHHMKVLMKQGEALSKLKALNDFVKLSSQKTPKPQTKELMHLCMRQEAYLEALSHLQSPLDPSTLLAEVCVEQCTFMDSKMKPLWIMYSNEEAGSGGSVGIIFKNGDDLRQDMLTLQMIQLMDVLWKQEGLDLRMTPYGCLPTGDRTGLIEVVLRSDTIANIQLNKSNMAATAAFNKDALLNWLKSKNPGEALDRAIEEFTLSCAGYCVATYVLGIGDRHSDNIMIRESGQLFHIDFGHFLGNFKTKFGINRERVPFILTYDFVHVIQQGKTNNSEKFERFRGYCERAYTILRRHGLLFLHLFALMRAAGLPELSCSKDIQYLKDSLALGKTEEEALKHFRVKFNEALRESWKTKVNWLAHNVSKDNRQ
Chain of p110δ/p85α (P27986 whole entry partner): as the sequence (P27986 whole entry partner) above

SMILES | PI3Kδ IH % @ 1 uM [1] [%] | IC50 [1] [nM] | IC50 [2] [nM] | PI3Kβ IH % @ 1 uM [3] [%] | PI3Kγ IH % @ 1 uM [4] [%] | IC50 [4] [nM] | IC50 [3] [nM] | IC50 [5] [nM]
C[C@H]1CN(c2nc(N)ncc2C#N)C1c1nn2ccc(Cl)c2c(=O)n1-c1ccccc1 (some centres unmarked) [Compound 431] | 96.2 | 7 | 85 | 51.3 | 95.9 | 8 | – | –
Cc1nc(N)nc(N2C[C@H](C)C2c2nn3ccc(F)c3c(=O)n2-c2ccccc2)c1C#N (some centres unmarked) [Compound 436] | >100 | 1 | 37 | 78.5 | 98.7 | 2 | 24 | –
Cc1nc(N)nc(N2C[C@H](C)[C@H]2c2nn3ccc(Cl)c3c(=O)n2-c2cccc(F)c2)c1C#N [Compound 461] | >100 | 0.4 | 18 | 80.5 | >100 | 7 | 54 | –
Cc1nc(N)nc(N2C[C@H](C)[C@H]2c2nn3ccc(F)c3c(=O)n2-c2cccc(F)c2)c1C#N [Compound 462] | >100 | 1 | 90 | 80.5 | >100 | 5 | 185 | –
CC(=O)c1cnc(N)nc1N1C[C@H](C)[C@H]1c1nn2ccc(Cl)c2c(=O)n1-c1cccc(F)c1 [Compound 467] | 89.7 | 1 | 39 | 77.1 | 94.3 | 5 | 374 | –
CC1(C)CN(c2nc(N)ncc2C#N)C1c1nn2ccc(Cl)c2c(=O)n1-c1ccccc1 (centres unmarked) [Compound 471] | >100 | 3 | 96 | 47.1 | 92.4 | 7 | – | –
CC(=O)c1cnc(N)nc1N1C[C@H](C)[C@H]1c1nn2ccc(Cl)c2c(=O)n1-c1ccccn1 [Compound 473] | >100 | 2 | 36 | 67.3 | 97.0 | 10 | 454 | 921
Cc1nc(N)nc(N2CCC2c2nn3ccc(Cl)c3c(=O)n2-c2ccccn2)c1C#N (centres unmarked) [Compound 475] | 94.9 | 2 | 94 | 80.3 | 93.3 | 13 | 83 | –
C[C@H]1CN(c2nc(N)nc(N)c2C#N)[C@@H]1c1nn2ccc(Cl)c2c(=O)n1-c1ccc(F)cc1 [Compound 480] | >100 | 3 | 11 | 93.6 | >100 | 2 | 81 | 648
C[C@H]1CN(c2nc(N)nc(N)c2C#N)[C@@H]1c1nn2ccc(Cl)c2c(=O)n1-c1ccccc1 [Compound 481] | >100 | 1 | 14 | 92.0 | >100 | 3 | 78 | 558
CC(=O)c1cnc(N)nc1N1CC[C@H]1c1nn2ccc(C(F)(F)F)c2c(=O)n1-c1ccccc1 [Compound 486, (S)-2-(1-(5-acetyl-2-aminopyrimidin-4-yl)azetidin-2-yl)-3-phenyl-5-(trifluoromethyl)pyrrolo[2,1-f][1,2,4]triazin-4(3H)-one] | >100 | 22 | 51 | 41.5 | >100 | 13 | – | –
Cc1nc(N)nc(N2CC[C@H]2c2nn3ccc(C(F)(F)F)c3c(=O)n2-c2ccccc2)c1C#N [Compound 487] | >100 | 6 | 46 | 64.7 | >100 | 8 | – | –
CC(=O)c1cnc(N)nc1N1C[C@H](C)[C@H]1c1nn2ccc(C(F)(F)F)c2c(=O)n1-c1ccccc1 [Compound 489] | >100 | 3 | 23 | 63.6 | >100 | 8 | 296 | –
CC(=O)c1c(N)nc(N)nc1N1CCC1c1nn2ccc(Cl)c2c(=O)n1-c1ccccc1 (centres unmarked) [Compound 492] | 97.73 | 30 | 12 | 50.7 | >100 | 12 | – | –
CC(=O)c1c(N)nc(N)nc1N1C[C@H](C)C1c1nn2ccc(Cl)c2c(=O)n1-c1cccc(F)c1 (some centres unmarked) [Compound 493] | 99.7 | 6 | 8 | 73.6 | >100 | 8 | 250 | –
Cc1cc(Cl)c2c(=O)n(-c3ccccc3)c([C@@H]3CCN3c3ncnc4[nH]cnc34)nn12 [Compound 496] | 34.2 | – | 2 | 18.3 | 17.2 | – | – | –
